Key:
HCT-116 = assay: Cytotoxicity assay (SRB), HCT-116; assay type: cell-based; settings: Homo sapiens, HCT-116, 72 h, HCT116 cells, 3 days, SRB; read-out: In Vitro Cellular Activity IC50 HCT116
Method in brief: (§1)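 BT474 (12000 cells/well) was treated for 6 days, whereas HCT-116 (4000), LoVo (6000) and MCF-7 (6000) were treated for 3 days, all in RPMI 1640 containing 5% FBS. Surviving-cell percentage came from SRB dye binding measured at 540 nm.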

LoVo = assay: Cytotoxicity assay (SRB), LoVo; assay type: cell-based; settings: Homo sapiens, LoVo, 72 h, LoVo cells, 3 days, SRB; read-out: In Vitro Cellular Activity IC50 LOVO
Method in brief: as §1

MCF-7 = assay: Cytotoxicity assay (SRB), MCF-7; assay type: cell-based; settings: Homo sapiens, MCF7, 72 h, MCF-7 cells, 3 days, SRB; read-out: In Vitro Cellular Activity IC50 MCF-7
Method in brief: as §1

cyclin E/CDK2 enzyme = target: T1, cyclin E/CDK2 enzyme (Homo sapiens, UniProt P24941); assay: CDK2 ELISA kinase assay (phospho-Rb ser 795 detection); assay type: biochemical; settings: In Vitro Enzyme Assays, read-out: CDK2 IC50
T1 construct: made in house; host or cells: Sf9 insect cells, recombinant baculovirus
Method in brief: (§2)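 Wells were coated overnight with GST-Rb C-terminal fragment, then blocked. Compound (10 ug/ml final) and cyclin/CDK enzyme from baculovirus-infected Sf9 cells with 200 μM ATP reacted 1 h at 30° C. Ser795 phosphorylation was detected by ELISA at 450 nm.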

BT474 = assay: Cytotoxicity assay (SRB), BT474; assay type: cell-based; settings: Homo sapiens, BT-474, 144 h, BT474 cells, 6 days, SRB; read-out: In Vitro Cellular Activity IC50 BT474
Method in brief: as §1

cyclin D1/cdk 4 enzyme = target: T2, cyclin D1/cdk 4 enzyme (Homo sapiens, UniProt P11802); assay: CDK4 ELISA kinase assay (phospho-Rb ser 795 detection); assay type: biochemical; settings: In Vitro Enzyme Assays, 200 μM ATP, read-out: CDK4 IC50
T2 construct: made in house; host or cells: Sf9 insect cells, recombinant baculovirus
T2 sequence (P11802 whole entry, species assumed): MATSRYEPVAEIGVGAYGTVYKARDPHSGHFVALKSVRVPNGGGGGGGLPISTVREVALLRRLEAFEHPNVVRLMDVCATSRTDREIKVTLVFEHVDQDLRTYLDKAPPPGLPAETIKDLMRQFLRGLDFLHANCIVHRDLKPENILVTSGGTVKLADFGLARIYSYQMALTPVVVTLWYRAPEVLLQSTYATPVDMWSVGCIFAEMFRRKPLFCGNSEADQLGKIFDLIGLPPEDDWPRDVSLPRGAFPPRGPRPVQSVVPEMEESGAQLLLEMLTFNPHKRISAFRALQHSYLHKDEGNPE
T2 sequence (P24385 whole entry partner, species assumed): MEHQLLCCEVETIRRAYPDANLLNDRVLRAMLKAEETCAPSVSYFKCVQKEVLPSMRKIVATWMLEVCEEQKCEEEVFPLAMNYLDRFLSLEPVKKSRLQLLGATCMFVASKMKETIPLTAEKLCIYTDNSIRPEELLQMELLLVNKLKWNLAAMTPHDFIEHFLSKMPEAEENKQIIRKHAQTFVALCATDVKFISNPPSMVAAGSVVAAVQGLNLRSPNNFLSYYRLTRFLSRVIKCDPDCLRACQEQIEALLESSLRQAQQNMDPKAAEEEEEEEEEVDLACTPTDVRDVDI
Method in brief: as §2

cyclin B/CDK1 enzyme = target: T3, cyclin B/CDK1 enzyme (Homo sapiens, UniProt P06493); assay: CDK1 ELISA kinase assay (phospho-Rb ser 795 detection); assay type: biochemical; settings: In Vitro Enzyme Assays, read-out: CDK1 IC50
T3 construct: purchased New England BioLabs; host or cells: Sf9 insect cells, recombinant baculovirus
T3 sequence (P06493 whole entry): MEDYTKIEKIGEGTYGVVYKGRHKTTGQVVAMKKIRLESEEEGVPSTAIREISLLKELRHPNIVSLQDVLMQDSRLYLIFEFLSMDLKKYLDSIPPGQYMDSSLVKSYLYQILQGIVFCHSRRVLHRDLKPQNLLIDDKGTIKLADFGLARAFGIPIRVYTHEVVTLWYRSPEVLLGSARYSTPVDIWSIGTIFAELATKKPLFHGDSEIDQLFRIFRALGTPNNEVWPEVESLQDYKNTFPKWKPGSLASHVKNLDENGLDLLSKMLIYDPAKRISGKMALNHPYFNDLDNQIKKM
T3 sequence (P14635 whole entry partner): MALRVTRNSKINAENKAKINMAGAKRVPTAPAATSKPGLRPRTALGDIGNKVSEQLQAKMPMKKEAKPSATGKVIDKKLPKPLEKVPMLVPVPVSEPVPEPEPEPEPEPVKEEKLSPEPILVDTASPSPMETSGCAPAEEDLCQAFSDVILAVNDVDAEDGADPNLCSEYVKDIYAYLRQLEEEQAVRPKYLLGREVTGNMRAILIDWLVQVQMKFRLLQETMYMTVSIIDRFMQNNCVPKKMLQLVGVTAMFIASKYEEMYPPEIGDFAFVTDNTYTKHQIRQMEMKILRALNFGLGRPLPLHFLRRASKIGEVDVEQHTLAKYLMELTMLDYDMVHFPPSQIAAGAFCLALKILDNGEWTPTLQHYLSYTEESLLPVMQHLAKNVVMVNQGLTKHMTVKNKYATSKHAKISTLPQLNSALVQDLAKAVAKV
Method in brief: as §2

SMILES | IC50 (cyclin E/CDK2 enzyme) | IC50 (cyclin D1/cdk 4 enzyme) | IC50 (cyclin B/CDK1 enzyme) | IC50 (HCT-116) | IC50 (LoVo) | IC50 (MCF-7) | IC50 (BT474)
C=CCN1CCCC1c1ccc(N/C=C2\C(=O)NC(=O)c3ccc(-c4ccsc4)cc32)cc1 (stereo not shown) [Example 420, 4-{[4-(1-Allyl-pyrrolidin-2-yl)-phenylamino]-methylene}-6-thiophen-3-yl-4H-isoquinoline-1,3-dione] | > 50 µM | 0.11 µM | > 50 µM | 4 µM | 16.2 µM | 36.8 µM | 7.7 µM
Nc1cnc(CN/C=C2\C(=O)NC(=O)c3ccc(I)cc32)cc1O [Example 424, 4-{[(5-Amino-4-hydroxy-pyridin-2-ylmethyl)-amino]-methylene}-6-iodo-4H-isoquinoline-1,3-dione] | 1.5 µM | 0.06 µM | 6.3 µM | > 50 µM | > 50 µM | > 50 µM | 12.7 µM
C=CC(=O)Nc1cnc(CN/C=C2\C(=O)NC(=O)c3ccc(I)cc32)cc1O [Example 428, N-(4-Hydroxy-6-{[(6-iodo-1,3-dioxo-2,3-dihydro-1H-isoquinolin-4-ylidenemethyl)-amino]-methyl}-pyridin-3-yl)-acrylamide] | 0.7 µM | 0.13 µM | 6.4 µM | 0.77 µM | 0.65 µM | 1.67 µM | 0.07 µM
CN(C)C(=O)C1CCN(c2ccc(N/C=C3\C(=O)NC(=O)c4ccc(I)cc43)cc2)CC1 [Example 429, 1-(4-{[(Z)-(6-Iodo-1,3-dioxo-2,3-dihydroisoquinolin-4(1H)-ylidene)methyl]amino}phenyl)-N,N-dimethylpiperidine-4-carboxamide] | > 50 µM | 3 µM | > 50 µM | 21 µM | 21.1 µM | > 50 µM | 11.7 µM
NC(=O)C1CCN(c2ccc(N/C=C3\C(=O)NC(=O)c4ccc(I)cc43)cc2)CC1 [Example 430, 1-(4-{[(Z)-(6-Iodo-1,3-dioxo-2,3-dihydroisoquinolin-4(1H)-ylidene)methyl]amino}phenyl)piperidine-4-carboxamide] | 15.4 µM | 2.3 µM | 19.3 µM | 5.6 µM | 14.9 µM | 11.7 µM | 13.8 µM
O=C1NC(=O)c2ccc(I)cc2/C1=C/Nc1ccc(N2CCC(C(=O)O)CC2)cc1 [Example 431, 1-(4-{[(Z)-(6-Iodo-1,3-dioxo-2,3-dihydroisoquinolin-4(1H)-ylidene)methyl]amino}phenyl)piperidine-4-carboxylic acid] | 4.1 µM | 1.3 µM | 8.6 µM | 6.1 µM | 5.8 µM | 8.8 µM | 6.4 µM
CON(C)C(=O)C1CCN(c2ccc(N/C=C3\C(=O)NC(=O)c4ccc(I)cc43)cc2)CC1 [Example 432, 1-(4-{[(Z)-(6-Iodo-1,3-dioxo-2,3-dihydroisoquinolin-4(1H)-ylidene)methyl]amino}phenyl)-N-methoxy-N-methylpiperidine-4-carboxamide] | > 50 µM | 6.5 µM | > 50 µM | 11.1 µM | 8.5 µM | 24.2 µM | 9.3 µM
O=C1NC(=O)c2ccc(I)cc2/C1=C/Nc1ccc(N2CCC(CO)CC2)cc1 [Example 434, (4Z)-4-[({4-[4-(Hydroxymethyl)piperidin-1-yl]phenyl}amino)methylene]-6-iodoisoquinoline-1,3(2H,4H)-dione] | > 50 µM | > 50 µM | 40.6 µM | 4.5 µM | 8.2 µM | 31.5 µM | 8.1 µM
COCC1CCN(c2ccc(N/C=C3\C(=O)NC(=O)c4ccc(I)cc43)cc2)CC1 [Example 435, (4Z)-6-Iodo-4-[({4-[4-(methoxymethyl)piperidin-1-yl]phenyl}amino)methylene]isoquinoline-1,3(2H,4H)-dione] | 38.8 µM | 4.6 µM | > 50 µM | 3.2 µM | 5.2 µM | 26 µM | 8.5 µM

Further lines, with some results ahead:

IC50 (cyclin E/CDK2 enzyme) | IC50 (cyclin D1/cdk 4 enzyme) | IC50 (cyclin B/CDK1 enzyme) | SMILES | IC50 (HCT-116) | IC50 (LoVo) | IC50 (MCF-7) | IC50 (BT474)
> 50 µM | 0.26 µM | > 50 µM | CCC1CCCN1Cc1ccc(N/C=C2\C(=O)NC(=O)c3ccc(I)cc32)cc1 (stereo not shown) [Example 436, 4-{[4-(2-Ethyl-pyrrolidin-1-ylmethyl)-phenylamino]-methylene}-6-iodo-4H-isoquinoline-1,3-dione] | 2.5 µM | 2.3 µM | 1.5 µM | 0.4 µM
> 50 µM | 0.14 µM | > 50 µM | O=C1NC(=O)c2ccc(-c3ccc(Cl)s3)cc2/C1=C/Nc1ccc(CN2CCC[C@H]2CO)cc1 [Example 441, 6-(5-Chloro-thiophen-2-yl)-4-{[4-(2-hydroxymethyl-pyrrolidin-1-ylmethyl)-phenylamino]-methylene}-4H-isoquinoline-1,3-dione] | 1.1 µM | 2.9 µM | 2.3 µM | 3.2 µM
> 50 µM | 0.32 µM | > 50 µM | CN1CCN(c2ccc(N/C=C3\C(=O)NC(=O)c4ccc(I)cc43)c(F)n2)CC1 [Example 445, (4Z)-4-({[2-Fluoro-6-(4-methylpiperazin-1-yl)pyridin-3-yl]amino}methylene)-6-iodoisoquinoline-1,3(2H,4H)-dione] | 1.8 µM | 2.7 µM | 3.2 µM | 2.8 µM
> 50 µM | 0.28 µM | > 50 µM | CN(C)CCNCC1CCN(c2ccc(N/C=C3\C(=O)NC(=O)c4ccc(I)cc43)cc2)CC1 [Example 446, (4Z)-4-[({4-[4-({[2-(Dimethylamino)ethyl]amino}methyl)piperidin-1-yl]phenyl}amino)methylene]-6-iodoisoquinoline-1,3(2H,4H)-dione] | 1.7 µM | 2.9 µM | 3 µM | 3.4 µM
17.6 µM | 7.5 µM | 12.9 µM | CN1CCN(c2ccc(N/C=C3\C(=O)NC(=O)c4ccc(I)cc43)c(O)n2)CC1 [Example 447, (4Z)-4-({[2-Hydroxy-6-(4-methylpiperazin-1-yl)pyridin-3-yl]amino}methylene)-6-iodoisoquinoline-1,3(2H,4H)-dione] | 2 µM | 3.5 µM | 3.6 µM | 3 µM
> 50 µM | 3.6 µM | > 50 µM | CN1CCN(c2ccc(N/C=C3\C(=O)NC(=O)c4ccc(-c5coc(CN6CCCC6)c5)cc43)nc2)CC1 [Example 449, (4Z)-4-({[5-(4-Methylpiperazin-1-yl)pyridin-2-yl]amino}methylene)-6-[5-(pyrrolidin-1-ylmethyl)-3-furyl]isoquinoline-1,3(2H,4H)-dione] | 2.6 µM | 2.2 µM | 3.5 µM | 8.1 µM
> 50 µM | 0.18 µM | > 50 µM | CN1CCCC1c1ccc(N/C=C2\C(=O)NC(=O)c3ccc(-c4cccs4)cc32)cc1 (stereo not shown) [Example 450, 4-{[4-(1-Methyl-pyrrolidin-2-yl)-phenylamino]-methylene}-6-thiophen-2-yl-4H-isoquinoline-1,3-dione] | 2.5 µM | 2.8 µM | 2.5 µM | 1.9 µM
> 50 µM | 0.06 µM | > 50 µM | CN1CCCC1c1ccc(N/C=C2\C(=O)NC(=O)c3ccc(-c4ccoc4)cc32)cc1 (stereo not shown) [Example 451, 6-Furan-3-yl-4-{[4-(1-methyl-pyrrolidin-2-yl)-phenylamino]-methylene}-4H-isoquinoline-1,3-dione] | 2.8 µM | 2.5 µM | 1 µM | 1 µM
1 µM | 0.06 µM | 12.6 µM | Cn1ccc(CN/C=C2\C(=O)NC(=O)c3ccc(I)cc32)cc1=O [Example 453, (4Z)-6-Iodo-4-({[(1-methyl-2-oxo-1,2-dihydropyridin-4-yl)methyl]amino}methylene)isoquinoline-1,3(2H,4H)-dione] | 3.7 µM | 3.3 µM | 4.3 µM | 4 µM
> 50 µM | 0.36 µM | > 50 µM | CN(C)CC1CCN(c2ccc(N/C=C3\C(=O)NC(=O)c4ccc(I)cc43)cc2)CC1 [Example 454, (4Z)-4-{[(4-{4-[(Dimethylamino)methyl]piperidin-1-yl}phenyl)amino]methylene}-6-iodoisoquinoline-1,3(2H,4H)-dione] | 7.4 µM | 10.5 µM | 11.5 µM | 10.5 µM

From patent publication US7713994B2 (Wyeth LLC, priority 2005, dated 2010)
